“And” between values parts separate entries of the source, which are not always exact repeats. Equal entries are not always repeated. Where two headings read alike, the source gives them in different places.
Assays:
h15-LOX-2 [1] = target: T1, h15-LOX-2 (Homo sapiens (Human), UniProt O15296); test: Lipoxygenase UV-Vis-based IC50 assay, h15-LOX-2; settings: for potency against h15-LOX-2, SAR statement: compared with original hits; for inhibition at 20 µM: read-out: % Inhibition at 20 μM
Procedure: (§3) The full IC50 experiments were done with at least five different inhibitor concentrations. All reaction mixtures were 2 mL in volume and constantly stirred using a magnetic stir bar at room temperature (23° C.) with the appropriate amount of LOX isozyme [h5-LOX (˜200 nM); h12-LOX (˜50 nM); h15-LOX-1 (˜60 nM); h15-LOX-2 (˜200 nM)]. […] Reactions with h12-LOX were carried out in 25 mM HEPES (pH 8.0) 0.01% Triton X-100 and 10 μM AA. Reactions with the crude, ammonium sulfate precipitated h5-LOX were carried out in 25 mM HEPES (pH 7.3), 0.3 mM CaCl2), 0.1 mM EDTA, 0.2 mM ATP, 0.01% Triton X100 and 10 μM AA. Reactions with h15-LOX-1 and h15-LOX-2 were carried out in 25 mM HEPES buffer (pH 7.5), 0.01% Triton X-100 and 10 μM AA. […] IC50 values were obtained by determining the percent inhibition at various inhibitor concentrations and plotting against inhibitor concentration, followed by a hyperbolic saturation curve fit. The percent inhibition was calculated by comparing the enzymatic rate of the control (DMSO) to the enzymatic rate with the respective inhibitor present. The experiments used for generating the saturation curves were performed in duplicate or triplicate, depending on the quality of the data.

human recombinant COX-2 = human recombinant COX-2 (Homo sapiens (Human), UniProt P35354); test: Cyclooxygenase selectivity assay, COX-2; assay type: biochemical; settings: estimated at 25 μM inhibitor concentration, 100 μM AA
Procedure: (§1) Cyclooxygenase selectivity assay was performed as previously described.^24 Approximately 3 μg of either ovine COX-1 (COX-1) or human recombinant COX-2 (COX-2) (Cayman Chemical) were added to buffer containing 0.1 M Tris-HCl buffer (pH 8.0), 5 mM EDTA, 2 mM phenol, and 1 μM hemin at 37° C. […] The reaction was then initiated by adding approximately 100 μM AA in the reaction cell, as indicated in the enzymatic protocol (Cayman Chemicals). A Hansatech DWI oxygen electrode was utilized for data collection and the consumption of oxygen was recorded.
(§2) Indomethacin and the vehicle of inhibitor (DMSO) were the positive and negative controls, respectively. The percent inhibition of the enzyme was calculated by comparing the rates of O2 consumption for experimental samples (with inhibitor) to the rates of control samples (with DMSO).

h15-LOX-2 [2] = target: T1, h15-LOX-2; test: Steady-state inhibition kinetics of h15-LOX-2; assay type: biochemical
Procedure: Reactions were initiated by adding h15-LOX-2 to a constantly stirring 2 mL reaction mixture containing 0.7 μM-20 μM AA in 25 mM HEPES buffer (pH 7.5), in the presence of 0.01% Triton X-100. Kinetic data were obtained by recording initial enzymatic rates, at varied inhibitor concentrations, and subsequently fitting the data to the Henri-Michaelis-Menten equation using KaleidaGraph (Synergy) to determine Vmax (μmol/min) and Km (μM). The primary data were then plotted in Dixon format using Microsoft Excel by graphing 1/v vs. [I] μM at the chosen substrate concentrations. From the Dixon plots, the slope at each substrate concentration was extracted and plotted against 1/[S] μM to produce the Dixon replots. The Kic equilibrium constant of dissociation was calculated by dividing Km/Vmax by the slope of the replot. To obtain Kiu, 1/Vmax was divided by the y-intercept of the replot. Kic and Kiu are defined as the equilibrium constant of dissociation from the catalytic and secondary sites, respectively.

h12-LOX = h12-LOX (Homo sapiens (Human), UniProt P18054); test: Lipoxygenase UV-Vis-based assay, h12-LOX selectivity
Procedure: as §3

ovine COX-1 = ovine COX-1 (Ovis aries (Sheep), UniProt P05979); test: Cyclooxygenase selectivity assay, COX-1; assay type: biochemical; settings: estimated at 25 μM inhibitor concentration, 100 μM AA
Procedure: as §1, §2

h5-LOX = h5-LOX (Homo sapiens (Human), UniProt P09917); test: Lipoxygenase UV-Vis-based assay, h5-LOX selectivity
Procedure: as §3

h15-LOX-1 = h15-LOX-1 (Homo sapiens (Human), UniProt P16050); test: Lipoxygenase UV-Vis-based assay, h15-LOX-1 selectivity
Procedure: as §3

h15-LOX-2 [3] = target: T1, h15-LOX-2; test: Pseudo-peroxidase activity assay (redox); assay type: biochemical; settings: 20 μM inhibitor, degradation of 13-HpODE at 234 nm; more than 25% degradation indicates redox activity
Procedure: 13-HpODE was used as the oxidant and BWb70c as the positive control. […] The reaction mixtures were constantly stirred at 23° C. […] The negative controls used were: enzyme alone with the product, enzyme alone with inhibitor, as well as inhibitor alone with the product. These formed a baseline for the assay, reflecting non-pseudo-peroxidase dependent hydroperoxide product decomposition. To rule out the auto-inactivation of the enzyme from pseudo-peroxidase cycling, the h15-LOX-2 residual activity was determined by the addition of 20 μM AA at the end of each reaction.

[4] = target: h15-LOX-2 expressed in HEK293T cells (Homo sapiens (Human), UniProt O15296); test: Inhibition of h15-LOX-2 in HEK293T cells (15-HETE production); assay type: cell-based; settings: h15-LOX-2/HEK293T cells, exogenous AA, triplicate
Procedure: HEK293T cells over-expressing h15-LOX-2 were grown in MEM (Gibco) with 10% FBS (Gibco), 2 mM glutamine (Sigma), 100U/mL of penicillin/streptomycin (Gibco) and 640 μg/ml G418 sulfate (Fisher) as a selection agent. Cells were harvested at 90% confluence with trypsin-EDTA (Gibco) and washed once with MEM with 10% FBS. Cells were then washed with 0.1% glucose (Fisher) in PBS (Gibco). Cells were then diluted in 0.1% glucose in PBS to a concentration of 1 million cells/mL. Cells were treated with DMSO (0.2%) or inhibitor in DMSO and incubated at 37° C. for 20 min. Cells were then stimulated with 100 uM CaCl2) (Sigma), 5 μM Ca Ionophore A23187 (Sigma), and 1 μM arachidonic acid (NuCheck) for 10 min at 37° C. Cells were then acidified to 40 uM HCl and snap-frozen in liquid nitrogen.

h15-LOX-2 [5] = target: T1, h15-LOX-2; test: Inhibitors as substrates of h15-LOX-2 (UV-Vis and RP-HPLC); assay type: biochemical; settings: 20 μM inhibitor, absence of AA
Procedure: All buffer conditions and the determination of each rate are identical to the UV-Vis assay as described above. 20 μM of each inhibitor was reacted with h15-LOX-2 in 2 mL reaction mixtures in the absence of AA. Controls included DMSO (vehicle), 10 μM AA, and enzyme. All reactions were conducted on a Perkin Elmer Lambda 40 UV/Vis spectrophotometer. […] Each reaction mixture was subsequently extracted and analyzed via RP-HPLC using a Higgins HAIsiL analytical column. […] Retention times and absorbance spectra of each of the reactions were compared to spectra of the controls.

h15-LOX-2 [6] = target: T1, h15-LOX-2; test: Hydrogen/deuterium exchange mass spectrometry of h15-LOX-2; settings: 20 μM inhibitor
Procedure: Samples were incubated randomly at 10 time points (0, 10, 20, 45, 60, 180, 600, 1800, 3600, and 7200 s) at 25° C. using a water bath. For each given temperature and mutant, the time points (samples) were collected over the course of three to four days and randomized to reduce systematic error. Each sample (from a unique time point) was prepared and processed once. For the samples containing inhibitors, the inhibitor was added (20 μM final concentration) to the protein stock solution (at least one minute) prior to D2O addition. The specific inhibitor was also added to the D2O buffer at a final concentration of 20 μM prior to the exchange experiment.
Procedures from this point were conducted near 4° C. Prior to pepsin digestion, guanidine HCl (in citric acid, pH 2.4) was mixed with the samples to a final concentration of ca. 0.5 M. This solution contained DTT to the final concentration of 5 mM. […]
Deuterated, pepsin-digested samples of 15-LOX-2 were analyzed using an Agilent 1200 LC (Santa Clara, CA) that was connected in-line with the LTQ Orbitrap XL mass spectrometer (Thermo). Mass spectral data acquired for HDX measurements were analyzed using the software, HDX WorkBench. The percent deuterium incorporation was calculated for each of these peptides, taking into account the number of amide linkages (excluding proline residues) and the calculated number of deuterons incorporated. […]

[7] = read-out: IC50 (μM) (± SD), h15-LOX-2 SAR study, 10 μM AA, 0.01% TritonX-100
[8] = read-out: IC50 (μM) (± SD (μM)), h15-LOX-2, 10 μM AA, duplicate
[9] = equilibrium constant of dissociation from the catalytic site, Dixon replot, 0.01% Triton X-100, read-out: Kic
[10] = read-out: h15-LOX-2 IC50, experimental values repeated in docking table
[11] = read-out: h15-LOX-2 IC50, full IC50 experiment, 10 μM AA, duplicate

Chain of h15-LOX-1 (P16050 whole entry): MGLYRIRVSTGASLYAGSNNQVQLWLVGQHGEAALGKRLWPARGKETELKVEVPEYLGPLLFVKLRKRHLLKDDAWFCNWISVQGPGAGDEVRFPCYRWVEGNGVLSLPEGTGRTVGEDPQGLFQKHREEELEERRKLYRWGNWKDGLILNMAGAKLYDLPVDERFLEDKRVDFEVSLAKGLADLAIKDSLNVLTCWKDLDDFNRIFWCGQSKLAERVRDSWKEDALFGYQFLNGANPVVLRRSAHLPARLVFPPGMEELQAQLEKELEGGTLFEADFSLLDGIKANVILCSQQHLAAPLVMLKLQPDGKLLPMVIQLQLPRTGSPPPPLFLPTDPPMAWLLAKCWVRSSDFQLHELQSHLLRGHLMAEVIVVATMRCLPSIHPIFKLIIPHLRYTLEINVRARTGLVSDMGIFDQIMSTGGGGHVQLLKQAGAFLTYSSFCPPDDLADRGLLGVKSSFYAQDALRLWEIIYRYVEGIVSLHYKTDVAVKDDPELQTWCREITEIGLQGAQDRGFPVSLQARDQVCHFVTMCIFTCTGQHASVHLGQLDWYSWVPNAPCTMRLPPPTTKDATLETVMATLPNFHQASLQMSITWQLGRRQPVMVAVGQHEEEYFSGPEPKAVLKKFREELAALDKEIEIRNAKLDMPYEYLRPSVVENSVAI
Chain of h12-LOX (P18054 whole entry, the tested form may be a part): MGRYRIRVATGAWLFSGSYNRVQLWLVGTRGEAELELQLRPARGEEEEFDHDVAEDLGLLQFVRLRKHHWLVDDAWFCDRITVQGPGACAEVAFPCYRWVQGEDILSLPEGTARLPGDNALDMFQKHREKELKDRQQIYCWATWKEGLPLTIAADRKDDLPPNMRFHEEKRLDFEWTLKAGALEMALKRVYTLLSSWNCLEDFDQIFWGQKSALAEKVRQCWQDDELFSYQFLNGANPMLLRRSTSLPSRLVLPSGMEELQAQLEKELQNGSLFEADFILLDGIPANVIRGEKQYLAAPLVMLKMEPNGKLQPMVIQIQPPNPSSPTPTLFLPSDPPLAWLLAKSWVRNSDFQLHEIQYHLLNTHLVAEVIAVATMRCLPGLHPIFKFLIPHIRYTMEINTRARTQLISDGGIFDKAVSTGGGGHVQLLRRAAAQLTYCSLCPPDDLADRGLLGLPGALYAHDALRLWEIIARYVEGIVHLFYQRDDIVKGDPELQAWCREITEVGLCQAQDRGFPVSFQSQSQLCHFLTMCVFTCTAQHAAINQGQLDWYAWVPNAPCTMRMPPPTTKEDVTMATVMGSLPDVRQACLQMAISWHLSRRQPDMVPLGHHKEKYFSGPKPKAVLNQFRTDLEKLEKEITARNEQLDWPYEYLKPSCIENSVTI
Chain of h5-LOX (P09917 whole entry): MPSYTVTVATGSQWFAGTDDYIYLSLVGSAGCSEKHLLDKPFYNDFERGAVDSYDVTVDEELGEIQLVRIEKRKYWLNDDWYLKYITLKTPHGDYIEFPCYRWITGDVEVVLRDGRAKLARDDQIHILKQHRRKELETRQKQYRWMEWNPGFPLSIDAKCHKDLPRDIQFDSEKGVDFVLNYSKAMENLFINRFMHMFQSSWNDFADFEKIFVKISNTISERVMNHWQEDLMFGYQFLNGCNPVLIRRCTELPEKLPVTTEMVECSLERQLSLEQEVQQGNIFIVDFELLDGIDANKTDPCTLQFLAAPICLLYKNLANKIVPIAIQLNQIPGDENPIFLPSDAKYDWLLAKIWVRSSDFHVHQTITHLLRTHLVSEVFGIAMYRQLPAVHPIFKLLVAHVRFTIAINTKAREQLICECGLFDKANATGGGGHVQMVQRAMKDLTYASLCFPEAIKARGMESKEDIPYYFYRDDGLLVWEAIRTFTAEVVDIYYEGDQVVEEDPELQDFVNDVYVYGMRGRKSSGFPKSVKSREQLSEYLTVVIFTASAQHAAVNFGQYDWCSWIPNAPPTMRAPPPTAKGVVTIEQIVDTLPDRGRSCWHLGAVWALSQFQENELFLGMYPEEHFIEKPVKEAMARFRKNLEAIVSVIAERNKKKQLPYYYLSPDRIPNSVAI
Chain of human recombinant COX-2 (P35354 18-604): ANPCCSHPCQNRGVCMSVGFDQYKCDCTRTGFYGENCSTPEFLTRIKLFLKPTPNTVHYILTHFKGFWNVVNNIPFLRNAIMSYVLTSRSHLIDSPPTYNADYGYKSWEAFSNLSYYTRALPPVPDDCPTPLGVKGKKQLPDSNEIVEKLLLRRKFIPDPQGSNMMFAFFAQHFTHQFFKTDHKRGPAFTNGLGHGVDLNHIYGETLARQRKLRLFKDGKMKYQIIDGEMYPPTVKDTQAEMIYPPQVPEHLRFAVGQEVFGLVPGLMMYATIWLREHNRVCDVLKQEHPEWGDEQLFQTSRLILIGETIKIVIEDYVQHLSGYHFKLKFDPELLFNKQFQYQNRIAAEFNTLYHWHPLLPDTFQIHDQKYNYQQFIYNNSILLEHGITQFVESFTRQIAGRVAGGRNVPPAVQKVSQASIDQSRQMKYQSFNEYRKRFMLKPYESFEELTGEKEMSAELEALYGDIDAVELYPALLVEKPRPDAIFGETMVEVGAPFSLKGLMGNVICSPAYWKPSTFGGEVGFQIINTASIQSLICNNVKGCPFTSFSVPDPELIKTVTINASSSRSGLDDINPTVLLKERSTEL
Chain of ovine COX-1 (P05979 25-600): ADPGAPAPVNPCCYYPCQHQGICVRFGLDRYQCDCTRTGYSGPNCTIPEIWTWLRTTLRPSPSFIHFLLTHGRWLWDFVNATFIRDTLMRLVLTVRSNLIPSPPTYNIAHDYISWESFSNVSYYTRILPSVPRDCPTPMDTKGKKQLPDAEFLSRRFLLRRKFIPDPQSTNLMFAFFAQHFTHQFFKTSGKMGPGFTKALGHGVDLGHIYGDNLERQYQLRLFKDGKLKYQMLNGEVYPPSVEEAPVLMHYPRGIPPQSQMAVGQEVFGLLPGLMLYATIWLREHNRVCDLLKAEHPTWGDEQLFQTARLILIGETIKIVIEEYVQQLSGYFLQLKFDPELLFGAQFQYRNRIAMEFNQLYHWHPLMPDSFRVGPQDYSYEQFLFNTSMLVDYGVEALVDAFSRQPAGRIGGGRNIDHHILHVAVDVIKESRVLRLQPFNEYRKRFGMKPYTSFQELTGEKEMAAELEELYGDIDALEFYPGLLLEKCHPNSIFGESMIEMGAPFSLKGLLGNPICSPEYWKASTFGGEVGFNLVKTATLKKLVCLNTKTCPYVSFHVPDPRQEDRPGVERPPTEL
Chain of h15-LOX-2 expressed in HEK293T cells (O15296 whole entry, the tested form may be a part): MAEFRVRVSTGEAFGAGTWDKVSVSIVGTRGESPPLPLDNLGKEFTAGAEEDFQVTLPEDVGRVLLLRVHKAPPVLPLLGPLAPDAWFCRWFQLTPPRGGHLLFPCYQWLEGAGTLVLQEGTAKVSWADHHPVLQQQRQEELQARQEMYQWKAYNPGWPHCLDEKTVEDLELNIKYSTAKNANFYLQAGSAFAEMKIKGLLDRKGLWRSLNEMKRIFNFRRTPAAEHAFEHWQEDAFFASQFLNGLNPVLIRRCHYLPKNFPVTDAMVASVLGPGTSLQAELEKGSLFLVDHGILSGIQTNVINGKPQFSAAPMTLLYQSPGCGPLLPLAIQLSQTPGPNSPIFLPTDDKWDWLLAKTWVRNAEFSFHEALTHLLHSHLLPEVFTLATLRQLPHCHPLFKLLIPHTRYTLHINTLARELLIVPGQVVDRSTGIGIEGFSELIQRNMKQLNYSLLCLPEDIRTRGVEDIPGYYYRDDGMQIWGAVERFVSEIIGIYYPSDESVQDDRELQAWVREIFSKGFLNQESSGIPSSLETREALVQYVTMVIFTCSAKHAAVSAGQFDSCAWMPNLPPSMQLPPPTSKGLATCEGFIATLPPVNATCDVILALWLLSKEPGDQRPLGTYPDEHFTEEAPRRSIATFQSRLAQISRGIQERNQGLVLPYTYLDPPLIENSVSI
T1 sequence (O15296 whole entry, the tested form may be a part): as above

Row | inhibition at 20 µM (h15-LOX-2 [1]) [%] | IC50 (h15-LOX-2 [1]; [7]) [µM] | Compound | further results
1 | 23 | > 100 | N#Cc1cc(CSc2nccn2-c2ccccc2)ccc1F [Compound 104, 2-fluoro-5-(((1-phenyl-1H-imidazol-2-yl)thio)methyl)benzonitrile] | potency against h15-LOX-2, SAR statement (h15-LOX-2 [1]): drastically decreased the potency
2 | 4 | > 100 | Cc1ccc(C)c(-n2ccnc2SCC(=O)O)c1 [Compound 119] | 
3 | 14 | > 100 | Cc1ccc(-n2ccnc2SCC(=O)O)cc1C [Compound 124] | 
4 | 35 | > 100 | Fc1ccc(CSc2nccn2-c2ccccc2)cc1 [Compound 102, 2-((4-fluorobenzyl)thio)-1-phenyl-1H-imidazole] | IC50 (h15-LOX-2 [1]; [8]): > 100 µM
5 | 4 | > 100 | O=C(CSc1nccn1-c1ccccc1)NO [Compound 111] | 
6 | 98 | 0.87 | CCc1ccc(CSc2nccn2-c2ccccc2)cc1 [Compound 107] | IC50 (human recombinant COX-2): > 100 µM; Ki (h15-LOX-2 [2]; [9]): 0.9 µM; Ki (h15-LOX-2 [2]; equilibrium constant of dissociation from the secondary site, Dixon replot, 0.01% Triton X-100, read-out: Kiu): 3.4 µM; IC50 (h12-LOX): > 100 µM; IC50 (ovine COX-1): > 100 µM; IC50 (h5-LOX): > 100 µM; IC50 (h15-LOX-2 [1]; [8]): 0.87 µM; IC50 (h15-LOX-2 [1]; [10]): 0.87 µM; IC50 (h15-LOX-2 [1]; [11]): 0.87 µM; IC50 (h15-LOX-1): > 50 µM; Redox (h15-LOX-2 [3]): No; EC50 [4]: ~1 µM and 1.3 µM; substrate activity with h15-LOX-2 (h15-LOX-2 [5]): not substrates
7 | 84 | 2.3 | CSc1ccc(CSc2nccn2-c2ccccc2)cc1 [Compound 103, 2-((4-(methylthio)benzyl)thio)-1-phenyl-1H-imidazole] | IC50 (h15-LOX-2 [1]; [8]): 2.3 µM
8 | 97 | 0.27 | Cc1ccc(-n2ccnc2SCc2ccc(C(F)(F)F)cc2)cc1 [Compound 101, 1-(p-tolyl)-2-((4-(trifluoromethyl)benzyl)thio)-1H-imidazole] | 
9 | 13 | > 100 | Cc1cccc(-n2ccnc2SCC(=O)Nc2cc(C(F)(F)F)ccc2Cl)c1 [Compound 127] | 
10 | 7 | > 100 | Cc1cccc(-n2ccnc2SCC(=O)O)c1C [Compound 121] | 
11 | 62 | > 25 | O=C(CSc1nccn1-c1ccccc1)c1ccc(Cl)cc1 [Compound 114] | 
12 | 7 | > 100 | Cc1cc(C)cc(-n2ccnc2SCC(=O)O)c1 [Compound 120] | 
13 | 31 | > 50 | Cc1ccccc1CSc1nccn1-c1ccccc1 [Compound 108] | potency against h15-LOX-2, SAR statement (h15-LOX-2 [1]): drastically decreased the potency
14 | 8 | > 100 | Cc1ccccc1-n1ccnc1SCC(=O)O [Compound 122] | 
15 |  |  | Brc1ccc(CSc2nccn2-c2ccccc2)cc1 [Compound 106] | IC50 (human recombinant COX-2): > 100 µM; IC50 (h12-LOX): > 100 µM; IC50 (ovine COX-1): > 100 µM; IC50 (h5-LOX): > 100 µM; IC50 (h15-LOX-1): > 50 µM
16 | 56 | > 25 | Cc1ccc(C(=O)CSc2nccn2-c2ccccc2)cc1 [Compound 113] | 
17 | 8 | > 100 | O=C(O)CCCSc1nccn1-c1ccccc1 [Compound 112] | 
18 | 39 | > 50 | Clc1cccc(CSc2nccn2-c2ccccc2)c1 [Compound 109] | potency against h15-LOX-2, SAR statement (h15-LOX-2 [1]): drastically decreased the potency
19 | 68 | > 25 | c1ccc(CCSc2nccn2-c2ccccc2)cc1 [Compound 110] | potency against h15-LOX-2, SAR statement (h15-LOX-2 [1]): drastically decreased the potency
20 | 16 | > 50 | Cc1ccc(-n2ccnc2SCC(=O)O)c(C)c1 [Compound 125] | 
21 | 8 | > 100 | O=C(CSc1nccn1-c1ccccc1)NCc1ccc(F)cc1 [Compound 117] | 
22 | 4 | > 100 | Cc1cccc(-n2ccnc2SCC(=O)Nc2ccccc2C(F)(F)F)c1 [Compound 126] | 
23 | 0 | > 100 | Cc1cc(C)cc(NC(=O)CSc2nccn2-c2ccccc2)c1 [Compound 116] | 
24 | 51 | > 25 | O=C(CSc1nccn1-c1ccccc1)c1ccc(Br)cc1 [Compound 115] | 
25 | 100 | 0.34 | FC(F)(F)c1ccc(CSc2nccn2-c2ccccc2)cc1 [Compound 105] | IC50 (human recombinant COX-2): > 100 µM; Ki (h15-LOX-2 [2]; Dixon replot of slope versus [Inhibitor], unit given as M, read-out: Kic (FIG. 2 legend)): 0.8 µM; Ki (h15-LOX-2 [2]; [9]): 0.7 µM; IC50 (h12-LOX): > 100 µM; IC50 (ovine COX-1): > 100 µM; IC50 (h5-LOX): > 100 µM; enhanced inhibition over inhibitor 536924 (h15-LOX-2 [1]; ratio of h15-LOX-2 IC50 values): ~10 fold; IC50 (h15-LOX-2 [1]; [8]): 0.34 µM; IC50 (h15-LOX-2 [1]; [10]): 0.34 µM; IC50 (h15-LOX-2 [1]; [11]): 0.34 µM; IC50 (h15-LOX-1): > 50 µM; Redox (h15-LOX-2 [3]): No; average HDX rate constants of peptides 173-184 and 184-191 in presence of inhibitor (h15-LOX-2 [6]; bi-exponential fits): 2—and 4-times slower; reduction in exchange of h15-LOX-2 peptides 173-184 and 184-191 (h15-LOX-2 [6]; short time scales (<10 min), 25° C.): ≤ 20%; EC50 [4]: ~1 µM and 0.75 µM; substrate activity with h15-LOX-2 (h15-LOX-2 [5]): not substrates
26 | 18 | > 50 | Cc1ccc(NC(=O)CSc2nccn2-c2ccccc2)cc1 [Compound 118] | 
27 | 13 | > 100 | CC(C)c1ccc(-n2ccnc2SCC(=O)O)cc1 [Compound 123] | 

Reference: patent publication US20240317691A1, “Compounds for Modulating Epithelial 15-(S)-Lipoxygenase-2 and Methods of Use for Same” (The Regents of the University of California, priority 2021, published 2024)
